Experimental data: US9271993B2, “Treatment of bacterial infectious diseases” (priority 2010, dated 2016)
≈ marks a conversion by molar mass, not a printed value. Like-named read-outs stand apart in the source and are kept apart here.

Legend:
M. avium-intracellulare = test: Drug susceptibility of non-tuberculous slow-growing mycobacteria, MGIT960; format: cell-based
[1] = system: clinical methicillin resistant Staphylococcus aureus (MRSA) isolates; test: MIC against clinical MRSA isolates, LB microdilution assay
Procedure: Activity was assessed by determination of minimal inhibitory concentrations (MIC), as described in Pfister et al., Antimicrob. […] Cultures from single colonies were grown in LB medium and used for MIC tests in a microtiter plate format. Starting cultures contained 200 μl of bacterial cells at an optical density of 0.025 at 600 nm, and the respective drug was added in twofold series of dilution.

M. massiliense = test: MIC against non-tuberculous rapidly-growing mycobacteria, microdilution; format: cell-based; details: Mycobacteroides abscessus, read-out: minimal inhibitory concentration (MIC)
Procedure: (§1) Activity of apramycin was assessed in standard microdilution assays and is expressed as minimal inhibitory concentration (MIC) in μg/ml.

M. abscessus = test: as above; format: cell-based; details: Mycobacteroides abscessus; strain 500039/08 M. abscessus; read-out: minimal inhibitory concentration (MIC)
Procedure: as §1

M. bolletii = test: as above; format: cell-based; details: Mycobacteroides abscessus, read-out: minimal inhibitory concentration (MIC)
Procedure: as §1

M. kansasii = test: Drug susceptibility of non-tuberculous slow-growing mycobacteria, MGIT960; format: cell-based
E. coli = test: MIC against gram-negative bacteria; format: cell-based; details: Escherichia coli, read-out: MIC
Source text: Agents Chemother. 2003, 47:1496-1502.

[2] = Staphylococcus aureus, MRSA, MRSA AG038, strain 70-26S Gm^S
[3] = Staphylococcus aureus, MRSA, MRSA AG040, strain 87-26S Gm^S
[4] = Staphylococcus aureus, MRSA, MRSA AG041, strain 98-25S Gm^S
[5] = Staphylococcus aureus, MRSA, MRSA AG042, strain 101-06R Gm^R
[6] = Staphylococcus aureus, MRSA, MRSA AG043, strain 01-08R Gm^R
[7] = Staphylococcus aureus, MRSA, MRSA AG044, strain 07-12R Gm^R
[8] = Staphylococcus aureus, MRSA, MRSA AG045, strain 08-12R Gm^R
[9] = Staphylococcus aureus, MRSA, MRSA AG053, strain 56-06R Gm^R
[10] = strain 177217/10 M. massiliense
[11] = strain 186139/07 M. massiliense
[12] = strain 500044/09 M. massiliense

For `NCC[C@H](O)C(=O)N[C@@H]1C[C@H](N)[C@@H](O[C@H]2O[C@H](CN)[C@@H](O)[C@H](O)[C@H]2O)[C@H](O)[C@H]1O[C@H]1O[C@H](CO)[C@@H](O)[C@H](N)[C@H]1O` [Amikacin], the “Activity (resistant/susceptible)” value (M. avium-intracellulare; strain 182034/06 M. avium-intracellulare, 1 μg/ml) was “R”, the “Activity (resistant/susceptible)” value (M. avium-intracellulare; strain 182034/06 M. avium-intracellulare, 4 μg/ml) was “S” and the “Activity (resistant/susceptible)” value (M. avium-intracellulare; strain 182034/06 M. avium-intracellulare, 10 μg/ml) was “S”. The “Activity (resistant/susceptible)” value (M. avium-intracellulare; strain 182124/07 M. avium-intracellulare, 1 μg/ml) was “R”, the “Activity (resistant/susceptible)” value (M. avium-intracellulare; strain 182124/07 M. avium-intracellulare, 4 μg/ml) was “S” and the “Activity (resistant/susceptible)” value (M. avium-intracellulare; strain 182124/07 M. avium-intracellulare, 10 μg/ml) was “S”. For the same molecule, the “Activity (resistant/susceptible)” value (M. avium-intracellulare; strain 182550/07 M. avium-intracellulare, 1 μg/ml) was “R”, the “Activity (resistant/susceptible)” value (M. avium-intracellulare; strain 182550/07 M. avium-intracellulare, 4 μg/ml) was “S” and the “Activity (resistant/susceptible)” value (M. avium-intracellulare; strain 182550/07 M. avium-intracellulare, 10 μg/ml) was “S”. For the same molecule, the MIC ([1]; MRSA AG048, strain 20-06R Gm^R) was 256 µg/mL (≈ 437 µM), the MIC ([1]; Staphylococcus aureus, MRSA) was 256 µg/mL (≈ 437 µM) and the MIC [1, 2] was 4 µg/mL (≈ 6.83 µM). It also gave an MIC [1, 3] of 16 to 32 µg/mL (≈ 27.3 to 54.6 µM), an MIC [1, 4] of 4 to 8 µg/mL (≈ 6.83 to 13.7 µM) and an MIC [1, 5] of 16 µg/mL (≈ 27.3 µM). It also gave an MIC [1, 6] of 8 to 16 µg/mL (≈ 13.7 to 27.3 µM), an MIC [1, 7] of 4 µg/mL (≈ 6.83 µM) and an MIC [1, 8] of 4 µg/mL (≈ 6.83 µM). For the same molecule, the MIC ([1]; Staphylococcus aureus, MRSA, MRSA AG046, strain 12-06R Gm^R) was 32 µg/mL (≈ 54.6 µM), the MIC ([1]; Staphylococcus aureus, MRSA, MRSA AG049, strain 23-12R Gm^R) was 8 to 16 µg/mL (≈ 13.7 to 27.3 µM) and the MIC ([1]; Staphylococcus aureus, MRSA, MRSA AG050, strain 31-06R Gm^R) was 16 µg/mL (≈ 27.3 µM). For the same molecule, the MIC ([1]; Staphylococcus aureus, MRSA, MRSA AG051, strain 36-06R Gm^R) was 8 to 16 µg/mL (≈ 13.7 to 27.3 µM), the MIC ([1]; Staphylococcus aureus, MRSA, MRSA AG052, strain 53-14I Gm^R) was 16 µg/mL (≈ 27.3 µM) and the MIC [1, 9] was 8 µg/mL (≈ 13.7 µM). For the same molecule, the MIC (M. massiliense; [10]) was 8 µg/mL (≈ 13.7 µM), the MIC (M. massiliense; [11]) was 4 µg/mL (≈ 6.83 µM) and the MIC (M. massiliense; [12]) was 1 µg/mL (≈ 1.71 µM). The MIC (M. abscessus) was 1 µg/mL (≈ 1.71 µM), the MIC (M. bolletii; strain 179639/10 M. bolletii) was 8 µg/mL (≈ 13.7 µM) and the MIC (M. bolletii; strain 181739/08 M. bolletii) was 4 µg/mL (≈ 6.83 µM). For the same molecule, the MIC (M. bolletii; strain 183177/08 M. bolletii) was 8 µg/mL (≈ 13.7 µM), the “Activity (resistant/susceptible)” value (M. kansasii; strain 177227/06 M. kansasii, 1 μg/ml) was “R” and the “Activity (resistant/susceptible)” value (M. kansasii; strain 177227/06 M. kansasii, 4 μg/ml) was “S”. The “Activity (resistant/susceptible)” value (M. kansasii; strain 177227/06 M. kansasii, 10 μg/ml) was “S”, the “Activity (resistant/susceptible)” value (M. kansasii; strain 180235/06 M. kansasii, 1 μg/ml) was “R” and the “Activity (resistant/susceptible)” value (M. kansasii; strain 180235/06 M. kansasii, 4 μg/ml) was “S”. The “Activity (resistant/susceptible)” value (M. kansasii; strain 180235/06 M. kansasii, 10 μg/ml) was “S”.

`NC[C@H]1O[C@H](O[C@H]2[C@H](O)[C@@H](O[C@H]3O[C@H](CO)[C@@H](O)[C@H](N)[C@H]3O)[C@H](N)C[C@@H]2N)[C@H](O)[C@@H](O)[C@@H]1O` [Kanamicin A] was tested, and the MIC (E. coli; E. coli AG01, clin. isol. (Gm^S)) was 16 µg/mL (≈ 33 µM), the MIC (E. coli; E. coli AG02, clin. isol (Gm^S)) was 4 to 8 µg/mL (≈ 8.26 to 16.5 µM) and the MIC (E. coli; E. coli AG03, clin. isol (Gm^R)) was 16 to 32 µg/mL (≈ 33 to 66 µM). It also gave an MIC (E. coli; E. coli AG06, BM13) of 1 to 2 µg/mL (≈ 2.06 to 4.13 µM), an MIC (E. coli; E. coli AG07, BM13/pIP135, resistance mechanism AAC(3)) of 8 µg/mL (≈ 16.5 µM) and an MIC (E. coli; E. coli AG08, BM13/pIP055, resistance mechanism ANT(2″)) of 16 to 128 µg/mL (≈ 33 to 264 µM). It also gave an MIC (E. coli; E. coli AG09, AAC(6′)-1B, resistance mechanism AAC(6′)) of 256 to 512 µg/mL (≈ 528 to 1060 µM), an MIC (E. coli; E. coli AG36, HB101/pAT197, resistance mechanism ANT(4′)) of 16 to 32 µg/mL (≈ 33 to 66 µM) and an MIC (E. coli; E. coli AG37, HB101/pAG21-1, resistance mechanism APH(3′)) of over 256 µg/mL. The MIC ([1]; MRSA AG047, strain 18-06R Gm^R) was over 256 µg/mL, the MIC ([1]; MRSA AG049, strain 23-12R Gm^R) was over 256 µg/mL and the MIC ([1]; MRSA AG050, strain 31-06R Gm^R) was over 256 µg/mL. It also gave an MIC ([1]; MRSA AG051, strain 36-06R Gm^R) of over 256 µg/mL, an MIC ([1]; MRSA AG052, strain 53-14I Gm^R) of over 256 µg/mL and an MIC ([1]; Staphylococcus aureus, MRSA) of over 256 µg/mL. The MIC [1, 2] was 4 µg/mL (≈ 8.26 µM), the MIC [1, 3] was 128 to 256 µg/mL (≈ 264 to 528 µM) and the MIC [1, 4] was 2 to 4 µg/mL (≈ 4.13 to 8.26 µM). For the same molecule, the MIC [1, 5] was 256 µg/mL (≈ 528 µM), the MIC [1, 6] was 128 to 256 µg/mL (≈ 264 to 528 µM) and the MIC [1, 7] was 64 µg/mL (≈ 132 µM). The MIC [1, 8] was 64 µg/mL (≈ 132 µM), the MIC ([1]; Staphylococcus aureus, MRSA, MRSA AG048, strain 20-06R Gm^R) was over 512 µg/mL and the MIC [1, 9] was 256 µg/mL (≈ 528 µM). It also gave an MIC (M. massiliense; [10]) of 32 µg/mL (≈ 66 µM), an MIC (M. massiliense; [11]) of 32 µg/mL (≈ 66 µM) and an MIC (M. massiliense; [12]) of 16 µg/mL (≈ 33 µM). For the same molecule, the MIC (M. abscessus) was 4 µg/mL (≈ 8.26 µM), the MIC (M. bolletii; strain 179639/10 M. bolletii) was 64 µg/mL (≈ 132 µM) and the MIC (M. bolletii; strain 181739/08 M. bolletii) was 64 µg/mL (≈ 132 µM). For the same molecule, the MIC (M. bolletii; strain 183177/08 M. bolletii) was 16 µg/mL (≈ 33 µM).
